Key:
[1] = biological target: Human immunodeficiency virus type 1 protease (Human immunodeficiency virus 1, UniProt Q72874); experiment: Binding affinity towards HIV protease was determined
H9 [2] = experiment: Effective dose for antiviral activity against HIV-1-infected H-9 cells; type: functional; conditions: Homo sapiens, read-out: ED50 (the source's name)
H9 [3] = experiment: Compound at 3 uM was tested for antiviral activity against HIV-1-infected H-9 cells; type: functional; conditions: Homo sapiens

Ki [1]	EC50 (H9 [2])	Structure (SMILES)	inhibition at 3 µM (H9 [3])
0.05 nM	950 nM	CCC(C1=C(O)C2CCCCC2OC1=O)c1cccc(NS(=O)(=O)c2ccc(C#N)cn2)c1 (stereo unspecified)	–
0.2 nM	2500 nM	CC(C)(C)C(C1=C(O)OC2CCCCCCC2C1=O)c1cccc(NS(=O)(=O)c2ccc(C#N)cc2)c1 (stereo unspecified)	–
1200 nM	–	CCC(C1=C(O)OC2CCCCCCC2C1=O)c1ccccc1 (stereo unspecified)	–
800 nM	–	CCC(c1ccccc1)c1c(O)c2ccccc2oc1=O (stereo unspecified) [PHENPROCOUMON]	–
> 2000 nM	–	CCC(C1=C(O)OC2CCCC2C1=O)c1ccccc1 (stereo unspecified)	–
> 1200 nM	–	CCC(C1=C(O)OC2CCCCCC2C1=O)c1ccccc1 (stereo unspecified)	–
15 nM	–	CCC(C1=C(O)OC2CCCCC2C1=O)c1cccc(NS(=O)(=O)c2ccc(C#N)cc2)c1 (stereo unspecified)	< 10%
700 nM	–	CCC(c1ccccc1)c1c(O)c2c(oc1=O)CCC2 (stereo unspecified)	–
670 nM	–	CCC(C1=C(O)OC2CCCCC2C1=O)c1ccccc1 (stereo unspecified)	–
> 2000 nM	–	CCC(c1ccccc1)c1c(O)c2c(oc1=O)CCCCCCC2 (stereo unspecified)	–
0.075 nM	8600 nM	CCC(c1cccc(NS(=O)(=O)c2ccc(C#N)cn2)c1)c1c(O)c2c(oc1=O)CCC2 (stereo unspecified)	–
1100 nM	–	CCC(c1ccccc1)c1c(O)c2c(oc1=O)CCCC2 (stereo unspecified)	–
